Measured values published in patent US5026731A, “Pharmaceutical composition and method of treating psychoses” (Schering Corporation, priority 1990, dated 1991).

Key:
D-2 receptor = target: T1, D-2 receptor (Bos taurus, UniProt P20288); assay: Competitive inhibition binding assay, 3H-spiperone (D2-binding), bovine striatal membranes
T1 construct: Striata were dissected on ice and membranes prepared as described earlier; from tissue; host or cells: bovine striatum (membranes; brains from a local slaughter house)
Description: (§1) Compounds of represented by formula I may be synthesized as disclosed herein and diluted in 0.05M Tris buffer, pH 7.4, as required.
(§2) Bovine brains were obtained from a local slaughter house, on ice. […] Briefly, the striata were homogenized in 20 volumes of Tris-HCl (50 mM) buffer, pH 7.4, using a Polytron (Brinkmann) homogenizer, setting 7; membranes were washed by centrigugation (20,000×g) and resuspending in buffer, twice, and finally resuspended in assay buffer (Tris-HCl, 50 mM, pH 7.4, containing 120 mM NaCl, 5 mM KCl, […], 1 mM MgCl2). At least 3-4 different pools of membrane were processed and stored at -80° C.
(§3) For competition studies, several concentration of test drug or standard were included, ranging from 10^-4 to 10^-3. Tubes were incubated, 30 minute incubations at 37° C. were terminated by rapid filtration under vacuum, on to GF/B filters, presoaked in 0.3% polyethyleneamine (PEl), with three 5 ml washes.

dopamine D-1 receptor = target: T2, dopamine D-1 receptor (Bos taurus, UniProt Q95136); assay: Competitive inhibition binding assay, 3H-Sch 23390 (D1-binding), bovine striatal membranes; conditions: for Ki: 3H-Sch 23390 binding, bovine striatal membranes, 30 minute at 37° C., Tris-HCl pH 7.4
T2 construct: Striata were dissected on ice and membranes prepared as described earlier; from tissue; host or cells: bovine striatum (membranes; brains from a local slaughter house)
Description: as §1, §2, §3

[1] = 3H-spiperone binding, bovine striatal membranes, 30 minute at 37° C., Tris-HCl pH 7.4

T1 sequence (P20288 whole entry): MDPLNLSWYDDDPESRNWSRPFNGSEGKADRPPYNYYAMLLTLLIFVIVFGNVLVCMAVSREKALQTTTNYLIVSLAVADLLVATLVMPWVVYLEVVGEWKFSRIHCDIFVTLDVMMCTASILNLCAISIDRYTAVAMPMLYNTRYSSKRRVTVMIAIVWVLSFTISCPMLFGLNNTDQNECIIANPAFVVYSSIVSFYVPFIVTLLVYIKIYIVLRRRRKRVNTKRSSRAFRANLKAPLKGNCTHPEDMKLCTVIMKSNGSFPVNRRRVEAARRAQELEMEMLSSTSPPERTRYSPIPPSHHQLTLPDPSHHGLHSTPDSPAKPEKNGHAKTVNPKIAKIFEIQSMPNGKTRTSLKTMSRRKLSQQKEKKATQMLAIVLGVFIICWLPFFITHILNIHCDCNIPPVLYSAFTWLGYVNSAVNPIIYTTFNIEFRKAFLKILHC
T2 sequence (Q95136 whole entry): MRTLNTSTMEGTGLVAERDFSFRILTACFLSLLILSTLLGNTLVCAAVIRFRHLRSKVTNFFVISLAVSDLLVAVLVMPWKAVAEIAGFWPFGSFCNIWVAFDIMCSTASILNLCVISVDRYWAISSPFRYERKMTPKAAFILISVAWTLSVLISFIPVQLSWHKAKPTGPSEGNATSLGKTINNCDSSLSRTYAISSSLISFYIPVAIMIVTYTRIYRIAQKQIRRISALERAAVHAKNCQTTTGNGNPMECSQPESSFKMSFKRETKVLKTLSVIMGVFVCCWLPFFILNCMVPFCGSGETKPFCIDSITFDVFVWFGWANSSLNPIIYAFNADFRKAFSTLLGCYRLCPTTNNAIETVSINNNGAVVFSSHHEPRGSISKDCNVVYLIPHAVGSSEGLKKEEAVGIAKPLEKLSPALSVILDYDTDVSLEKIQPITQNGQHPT

| Compound | Ki (D-2 receptor; pH 7.4) [nM] | Ki (dopamine D-1 receptor) [nM] | D1 receptor selectivity (D1 versus D2) (dopamine D-1 receptor; from the Ki data of Table 1, D1 vs D2) | Ki (D-2 receptor; [1]) [nM] |
| --- | --- | --- | --- | --- |
| (+) butaclamol | 1 |  |  |  |
| CC(=O)Nc1cc(O)ccc1O [2,5-dihydroxyacetanilide] |  | 1200 to 2000 | more than 100 fold | 200000 |
| CN1CCc2cc(Cl)c(O)cc2[C@@H](c2ccccc2)C1 [Sch 23390, (R)-(+)-8-chloro-2,3,4,5-tetrahydro-3-methyl-5-phenyl-1H-3-benzazepin-7-olhemimaleate] |  | 0.8 |  | 800 |
